Assay results reported in patent US20240059688A1, “CONOLIDINE ANALOGUES AS SELECTIVE ACKR3 MODULATORS FOR THE TREATMENT OF CANCER” (Luxembourg Institute of Health (LIH), priority 2020, published 2024).

Columns and labels:
Assay type in all cases: cell-based
ACKR3 [1] = biological target: T1, ACKR3 (Homo sapiens, UniProt P25106); experiment: ACKR3 β-arrestin recruitment assay (PathHunter, β-galactosidase complementation); conditions: for Emax: read-out: ACKR3 β-arrestin % CXCL12 Emax ± SEM; for EC50: stable human ACKR3-β-arrestin-2-CHO cells, mean ± SEM, at least two independent experiments in duplicate
Summary of the method: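 Agonist mode in PathHunter CHO cells expressing human ACKR3-β-arrestin-2, compounds added in DPBS/1% DMSO for 1.5 hr at 37° C, then detection 1 hr at room temperature, luminescence read. CXCR4 run in C2C12 cells with a 3 hr Cell Plating Reagent 4 preincubation. EC50 and % Emax from three-parameter fits, CXCL-12 as reference agonist; ≥2 independent experiments in duplicate.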

ACKR3 [2] = biological target: T1, ACKR3; experiment: GPCR β-arrestin screening (PathHunter gpcrMAX/orphanMAX), ACKR3; conditions: conolidine 10 μM; over 240 receptors tested
Experimental: (§1) In an effort to identify the target of conolidine among the GPCR family, we undertook a large scale screening program using a β-arrestin recruitment assay based on β-galactosidase complementation (PathHunter, DiscoverX). Over 240 receptors were tested for their ability to be activated or inhibited by conolidine (10 μM) (data not shown). These included 168 GPCRs from the gpcrMAX panel, covering over 60 distinct receptor families such as adrenergic, dopamine, P2Y or serotonin and 74 GPCRs from the orphanMAX panel.

ADRA2B = biological target: T2, ADRA2B (Homo sapiens, UniProt P18089); experiment: GPCR β-arrestin screening (PathHunter gpcrMAX/orphanMAX), ADRA2B; conditions: conolidine 10 μM
T2 sequence (P18089 1-450): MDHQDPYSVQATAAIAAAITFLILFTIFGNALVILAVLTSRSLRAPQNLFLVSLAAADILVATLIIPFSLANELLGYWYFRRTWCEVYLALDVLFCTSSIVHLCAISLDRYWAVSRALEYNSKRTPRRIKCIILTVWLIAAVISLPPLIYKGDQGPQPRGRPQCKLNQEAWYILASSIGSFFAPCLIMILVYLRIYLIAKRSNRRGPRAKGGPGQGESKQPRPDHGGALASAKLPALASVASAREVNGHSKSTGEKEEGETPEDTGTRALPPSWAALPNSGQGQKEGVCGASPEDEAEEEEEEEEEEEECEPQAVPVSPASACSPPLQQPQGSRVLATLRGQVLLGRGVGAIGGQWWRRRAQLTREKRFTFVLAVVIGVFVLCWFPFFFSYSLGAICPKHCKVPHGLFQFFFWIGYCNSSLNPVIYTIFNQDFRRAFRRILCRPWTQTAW
Experimental: as §1

ADRA2BC = biological target: T3, ADRA2BC (Homo sapiens, UniProt P18825); experiment: GPCR β-arrestin screening (PathHunter gpcrMAX/orphanMAX), ADRA2BC; conditions: conolidine 10 μM
T3 sequence (P18825 1-462): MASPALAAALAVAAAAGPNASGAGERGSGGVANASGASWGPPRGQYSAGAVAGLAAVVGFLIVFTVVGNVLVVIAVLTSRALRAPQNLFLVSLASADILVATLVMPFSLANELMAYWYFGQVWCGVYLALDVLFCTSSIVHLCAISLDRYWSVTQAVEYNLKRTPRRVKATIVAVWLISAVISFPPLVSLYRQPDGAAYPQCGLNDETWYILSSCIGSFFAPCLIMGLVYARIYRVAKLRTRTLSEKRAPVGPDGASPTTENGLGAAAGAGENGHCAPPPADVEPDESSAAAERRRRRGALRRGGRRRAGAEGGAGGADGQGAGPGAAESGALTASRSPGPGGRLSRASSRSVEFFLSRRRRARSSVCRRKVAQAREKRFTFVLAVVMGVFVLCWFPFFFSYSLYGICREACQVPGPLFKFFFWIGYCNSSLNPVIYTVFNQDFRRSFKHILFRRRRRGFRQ
Experimental: as §1

HRH2 = HRH2 (Homo sapiens, UniProt P25021); experiment: GPCR β-arrestin screening (PathHunter gpcrMAX/orphanMAX), HRH2; conditions: conolidine 10 μM
Experimental: as §1

[3] = biological target: T4, Mast cells G protein-coupled receptor-X2 (MRGPRX2) (Homo sapiens, UniProt Q96LB1); experiment: GPCR β-arrestin screening (PathHunter gpcrMAX/orphanMAX), MRGPRX2; conditions: conolidine 10 μM
T4 sequence (Q96LB1 1-330): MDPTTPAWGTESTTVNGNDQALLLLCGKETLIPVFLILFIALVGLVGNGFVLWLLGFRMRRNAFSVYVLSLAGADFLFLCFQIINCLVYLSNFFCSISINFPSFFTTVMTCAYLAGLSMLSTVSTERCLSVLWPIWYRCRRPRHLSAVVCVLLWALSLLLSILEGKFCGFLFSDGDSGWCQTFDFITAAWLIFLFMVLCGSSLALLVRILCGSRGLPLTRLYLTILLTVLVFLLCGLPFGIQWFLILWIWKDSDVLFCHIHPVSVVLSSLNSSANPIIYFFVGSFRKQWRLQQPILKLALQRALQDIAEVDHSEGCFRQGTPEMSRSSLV
Experimental: as §1

[4] = biological target: cannabinoid receptor 2 (CNR2) (Homo sapiens, UniProt P34972); experiment: GPCR β-arrestin screening (PathHunter gpcrMAX/orphanMAX), CNR2; conditions: conolidine 10 μM
Experimental: as §1

[5] = biological target: T5, melatonin receptor 1B (MTNR1B) (Homo sapiens, UniProt P49286); experiment: GPCR β-arrestin screening (PathHunter gpcrMAX/orphanMAX), MTNR1B; conditions: conolidine 10 μM
T5 sequence (P49286 1-362): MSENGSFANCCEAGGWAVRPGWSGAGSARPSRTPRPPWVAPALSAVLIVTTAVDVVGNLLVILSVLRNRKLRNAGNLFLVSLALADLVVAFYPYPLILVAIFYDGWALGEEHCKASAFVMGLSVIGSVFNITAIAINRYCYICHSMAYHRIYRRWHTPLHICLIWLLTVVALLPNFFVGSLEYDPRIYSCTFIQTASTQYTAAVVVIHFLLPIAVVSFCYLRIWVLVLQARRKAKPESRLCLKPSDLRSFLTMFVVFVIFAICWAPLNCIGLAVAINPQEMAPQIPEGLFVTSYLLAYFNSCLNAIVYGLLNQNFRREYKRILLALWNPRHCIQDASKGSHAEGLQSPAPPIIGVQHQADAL
Experimental: as §1

T1 sequence (P25106 whole entry): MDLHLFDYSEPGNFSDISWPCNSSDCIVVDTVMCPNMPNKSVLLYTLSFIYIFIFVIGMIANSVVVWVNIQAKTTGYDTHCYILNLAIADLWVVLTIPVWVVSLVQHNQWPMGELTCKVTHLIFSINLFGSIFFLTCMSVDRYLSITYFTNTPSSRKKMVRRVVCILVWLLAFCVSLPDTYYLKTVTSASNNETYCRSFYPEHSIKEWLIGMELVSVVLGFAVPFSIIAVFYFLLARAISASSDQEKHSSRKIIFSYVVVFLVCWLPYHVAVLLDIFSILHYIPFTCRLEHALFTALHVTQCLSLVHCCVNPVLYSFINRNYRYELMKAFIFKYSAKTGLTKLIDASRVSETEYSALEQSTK
Sequence of HRH2 (P25021 whole entry): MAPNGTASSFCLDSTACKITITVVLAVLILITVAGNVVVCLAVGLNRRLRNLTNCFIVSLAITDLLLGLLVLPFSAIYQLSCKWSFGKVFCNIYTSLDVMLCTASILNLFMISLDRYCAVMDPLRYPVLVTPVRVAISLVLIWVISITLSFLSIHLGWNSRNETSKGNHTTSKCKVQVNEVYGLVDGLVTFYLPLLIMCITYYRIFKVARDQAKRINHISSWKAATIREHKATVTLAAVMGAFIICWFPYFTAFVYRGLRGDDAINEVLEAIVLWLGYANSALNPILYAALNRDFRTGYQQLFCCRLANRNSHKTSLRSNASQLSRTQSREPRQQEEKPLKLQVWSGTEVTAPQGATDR
Sequence of cannabinoid receptor 2 (CNR2) (P34972 whole entry): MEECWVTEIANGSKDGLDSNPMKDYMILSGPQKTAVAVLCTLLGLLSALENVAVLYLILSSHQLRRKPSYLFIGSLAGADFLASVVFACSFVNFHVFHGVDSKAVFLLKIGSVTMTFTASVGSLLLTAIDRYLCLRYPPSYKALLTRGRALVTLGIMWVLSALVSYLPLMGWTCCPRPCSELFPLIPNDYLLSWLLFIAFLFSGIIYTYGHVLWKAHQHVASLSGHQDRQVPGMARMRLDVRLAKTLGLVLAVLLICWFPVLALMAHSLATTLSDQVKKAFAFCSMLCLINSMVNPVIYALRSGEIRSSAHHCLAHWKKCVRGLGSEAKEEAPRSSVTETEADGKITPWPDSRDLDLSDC

Emax (ACKR3 [1]) [%] | EC50 (ACKR3 [1]) [µM] | response of ACKR3 in GPCR screening (ACKR3 [2]) | activity towards ADRA2B in GPCR screening (ADRA2B) | activity towards ADRA2BC in GPCR screening (ADRA2BC) | activity towards HRH2 in GPCR screening (HRH2) | activation of MRGPRX2 in GPCR screening [3] | activation of CNR2 in GPCR screening [4] | activation of MTNR1B in GPCR screening [5] | Structure (SMILES)
181 ± 4 | 27.3 ± 0.44 | most responsive receptor | No activity was detected | No activity was detected | No activity was detected | only partially activated | only partially activated | only partially activated | C/C=C1/CN2CC[C@H]1C(=O)c1[nH]c3ccccc3c1C2 [WW-1, (4E,5R)-4-ethylidene-1,4,5,7-tetrahydro-2,5-ethanoazocino[4,3-b]indol-6(3H)-one]
140 ± 11 | 0.353 ± 0.019 | – | – | – | – | – | – | – | C/C=C1/CN(CCCCC)CC[C@H]1C(=O)c1cc2ccccc2[nH]1 [WW-12, [(3E,4R)-3-ethylidene-1-pentylpiperidin-4-yl](1H-indol-2-yl)methanone]
